How the values were obtained:
[1] = set-up: method as in PMID 12076989; conditions: after co-administration of diltiazem with saxagliptin; cited from earlier work
PDE5 = conditions: relative to sildenafil; cited from earlier work
[2] = cited from earlier work
[3] = independent of total drug concentrations; cited from earlier work
isolated aorta rings = conditions: cited from earlier work
[4] = set-up: method as in PMID 33459228; conditions: cited from earlier work
[5] = healthy subjects and patients with type 2 diabetes; cited from earlier work
clinical = conditions: human, in vivo
Procedure: Mobile phase composition is 25 mM ammonium acetate: methanol 25:[…]. The flow rate was set at 0.7 ml/min. Injection volume was set at 2.5 ul. […] Before transferring the plasma sample to the MCX cartridge, acidification of the plasma sample with […] of (formic acid 2%) was performed. The sample was washed with 200 ul of 2% formic acid in water followed by 200 ul of methanol. […] Then 350 ul of water was added to the eluent and vortexed. After that, the diluted eluent was transferred to a vial insert, and 2.5 μl was injected into LC/MS/ MS system for analysis. […] The limit of quantification was defined considering the method sensitivity, the precision, and the accuracy. To evaluate precision and accuracy, specific quality control samples were included in the validation procedure. […] Blood samples were collected into tubes containing EDTA disodium as an anticoagulant slightly shaken and centrifuged at approximately 4000 r.p.m. for 10 min. After centrifugation, plasma samples were transferred directly into a 5 ml-plastic tube. These samples were immediately stored at the study site in a freezer at a nominal temperature - 80 °C until analysis. The label of the collecting tubes had the study's code number, subject number, study period, and the designated sample number. […] Pharmacokinetic parameters were determined and calculated. […] The pharmacokinetic analysis was performed using the SAS program. All results were expressed as mean ± SD. Paired T-Test was used to compare results, and the level of significance was considered at (P < 0.05).

[6] = Pharmacodynamic parameters: blood glucose levels (Gmax, AUCg0-t) in healthy volunteers; format: in vivo, human
Procedure: (§1) Blood glucose levels were measured for all volunteers on the ninth and the thirteenth day before dosing and at 0.5, 0.75, 1, 1.5, 2, 2.5, 3, 12, and 24 h; the main outcome measures were maximum plasma glucose concentration (Gmax) and the area under the blood glucose concentration–time curve (AUCg0-t). Blood pressure (systolic and diastolic) and heart rate were measured before dosing and at 2, 4, 6, 8, and 10 h after drug administration.

[7] = Safety and tolerability: adverse effects, blood pressure, pulse rate in healthy volunteers; format: in vivo, human; conditions: for incidence of reported headache: 18 volunteers
Procedure: as §1
Blood pressure, pulse rate, and body temperature together with blood glucose levels were reported all over the study. Moreover, possible side and/or adverse reactions or events to the study formulations were recorded to assure the safety and tolerability of different drug administrations.

[8] = oral administration, fasting conditions

SMILES: N#C[C@@H]1C[C@@H]2C[C@@H]2N1C(=O)[C@@H](N)C12CC3CC(O)(CC(O)(C3)C1)C2 [5-hydroxy saxagliptin]
- decrease of geometric mean AUC0-inf [1]: 34%
- decrease of geometric mean Cmax [1]: 43%

SMILES: CCCc1nn(C)c2c(=O)[nH]c(-c3cc(S(=O)(=O)N4CCNCC4)ccc3OCC)nc12 [N-desmethyl metabolite]
- in vitro potency for PDE5 relative to the parent drug (PDE5): approximately 50%
- plasma concentrations relative to those found for sildenafil [2]: approximately 40%
- terminal half-life (t1/2) [2]: approximately 4 h
- bound to plasma proteins [3]: 96%

SMILES: N#C[C@@H]1C[C@@H]2C[C@@H]2N1C(=O)[C@@H](N)C12CC3CC(CC(O)(C3)C1)C2 [saxagliptin]
- rise of NO/ONOO- rate (isolated aorta rings): about 40%
- stimulation of NO release (isolated aorta rings): about 18%
- overall systemic exposure to saxagliptin [AUCs] ([4]; co-administration of simvastatin 40 mg): not affected
- effect on CYP3A4 activity ([4]; concluded from simvastatin pharmacokinetics at steady state): neither induces nor inhibits CYP3A4 activity
- mean half-life [5]: 2.2 to 3.8 h
- time to reach maximal plasma concentration [5]: < 2 h
- AUC(0-inf) (clinical; 5 mg): 113 ng·h/mL
- AUC(0-t) (clinical; 5 mg): 112 ng·h/mL
- Tmax (clinical; 5 mg): 1.24 h
- maximum glucose concentration (Gmax) ([6]; saxagliptin 5 mg + sildenafil 50 mg co-administered): 95.6 mg/dL
- maximum glucose concentration (Gmax) ([6]; saxagliptin 5 mg multiple doses alone): 93.7 mg/dL
- blood pressure and pulse rate ([7]; after co-administration of saxagliptin and sildenafil vs alone (P > 0.001)): comparable
- incidence of reported headache ([7]; co-administration of saxagliptin 5 mg and sildenafil 50 mg): 44.4%
- incidence of reported headache ([7]; drug administered alone): 0%

SMILES: CCCc1nn(C)c2c(=O)[nH]c(-c3cc(S(=O)(=O)N4CCN(C)CC4)ccc3OCC)nc12 [sildenafil]
- AUC(0-t) (clinical; 50 mg): 977 ng·h/mL
- Cmax (clinical; 50 mg): 302 ng/mL
- Tmax (clinical; 50 mg): 0.977 h
- absolute oral bioavailability, range [2]: 25–63%
- mean absolute oral bioavailability [2]: 41%
- mean steady-state volume of distribution [2]: 105 L
- terminal half-life (t1/2) [2]: 3 to 5 h
- total body clearance [2]: 41 L/h
- median time to Cmax [2, 8]: 60 min
- time to maximum observed plasma concentration (Cmax) [2, 8]: 30 to 120 min
- incidence of reported headache ([7]; drug administered alone): 33.3%
